Values joined by “and” are separate entries in the source; they are usually repeats but may differ in a detail not shown here. Identical values can stand only once.
What was measured:
metastatic melanoma = test: Immune checkpoint therapy patient's clinical response; format: in vivo, human; details: patient #39, previously progressed on other therapies
Description: (§1) Ethics Statement. All clinical data and patient samples were collected following approval by the Massachusetts General Hospital institutional review board and the Hospital of the University of Pennsylvania institutional review board. In all cases informed consent was obtained. All animal studies were conducted in accordance with the Guide for the Care and Use of Laboratory Animals of the NIH. Mice were maintained according to the guidelines of the Wistar Institutional Animal Care and Use Committee (IACUC), and study designs were approved by the Wistar IACUC.
RNA-seq of 31 paired pre-, on- and/or post-treatment tumor biopsies derived from 12 patients who were treated with various immune checkpoint blockade therapies were carried out. […] The ssGSEA identified that “packaging of telomere ends” and “telomere maintenance” were highly enriched in 7 out 12 patients' on- or post-treatment tumor biopsies (FIG. 11). […] Prior to pembrolizumab, this patient progressed on vemurafenib, IL-2, ipilimumab, and dabrafenib plus trametinib. It was observed that “telomere maintenance” and “packaging of telomere ends” were highly enriched in this patient's on-treatment tumor biopsy compared to the paired pre-treatment tumor biopsy (FIG. 9F and Table 8). 00449194) 96

WO-24-2 = test: Relative cell viability, patient-derived culture WO-24-2; format: cell-based, human; details: carboplatin at indicated doses, 5 days
Description: A short-term primary culture, WO-24-2 from a therapy-resistant human ovarian cancer, was also established. The WO-24-2 tumor was resected from a patient with high grade serous ovarian cancer who underwent an interval debulking surgery after receiving neoadjuvant chemotherapy with platinum/taxane and subsequently progressed on platinum chemotherapy. Immunofluorescence staining of PAX8 and cytokeratin 7 confirmed that these were indeed human ovarian cancer cells (FIG. 14K) (George et al., 2017).

PEO4 = test: Relative cell viability, PEO4; format: cell-based, human; details: 5 days
Description: (§2) Additionally, the efficacy of 6-thio-dG was tested using two human ovarian cancer cell lines, PEO4 and PEO1-CR. PEO4 is a derivative line of BRCA1/2-mutant PEO1 that regains homologous recombination by BRCA reversion mutation. […] Importantly, all three cell lines were sensitive to 6-thio-dG after the 5-day treatment (FIGS. 14H-14J).

PEO1 = test: Relative cell viability, PEO1; format: cell-based, human; details: 5 days
Description: as §2

PEO1-CR = test: Relative cell viability, PEO1-CR; format: cell-based, human; details: 5 days
Description: as §2

[1] = tested on: panel of 12 cancer cell lines of 9 different histological origins; test: Long-term cell growth assay (crystal violet), 12 non-melanoma cancer cell lines; format: cell-based; details: dose of 25 μM; 9-12 days
Description: FIGS. 1A-1B show long-term cell growth assay of 12 non-melanoma cancer cell lines (FIG. 1A) and 12 BRAF-mutant melanoma cell lines (FIG. 1B) that were treated with 6-thio-dG (6dG) or BIBR 1532 (BIBR) at indicated doses for 9 to 12 days.
Treatment of a Variety of Cancer Cell Lines with Telomerase-directed 6-thio-dG Impairs Cell Viability. […] To further confirm the inhibitory effect of 6-thio-dG, a panel of 12 cancer cell lines of 9 different histological origins was treated with 6-thio-dG for 9-12 days. As the control for 6-thio-dG, a known telomerase inhibitor, BIBR 1532, was also included. In most cases, these cancer cell lines were sensitive to 6-thio-dG administered at a dose of 2.5 μM and higher (FIG. 1A).

[2] = tested on: metastatic melanoma (BRAF mutation); test: Targeted therapy patients' clinical response; format: in vivo, human; details: one patient per row; vemurafenib 1920 mg daily
Description: as §1
In addition to treatment-naïve human melanoma, paired pre-, on- and post-treatment tumor biopsies derived from patients with metastatic melanoma who were treated with targeted therapies or immune checkpoint blockade therapies were analyzed.

pembrolizumab: anti-PD-1 drug
best response (metastatic melanoma): progressive disease

N.N.O=C([O-])C1(C(=O)[O-])CCC1.[Pt+2] [carboplatin, reference compound]
sensitivity (relative cell viability) (WO-24-2): resistant
sensitivity (relative cell viability) (PEO4): intrinsically resistant
sensitivity (relative cell viability) (PEO1): sensitive
sensitivity (relative cell viability) (PEO1-CR): acquired resistance

C/C(=C\C(=O)Nc1ccccc1C(=O)O)c1ccc2ccccc2c1 [BIBR 1532, reference compound]
anti-proliferative activity [1]: observed in a subset of 12 cancer cell lines

CCCS(=O)(=O)Nc1ccc(F)c(C(=O)c2c[nH]c3ncc(-c4ccc(Cl)cc4)cc23)c1F [vemurafenib]
Response (value in parentheses) [2]: −16.5% and −51.2% and −53% and −24.9% and −81.5% and −60.5% and −56% and −27%
Time To Progression [2]: 6 months and 5 months and 2 months and 4.3 months and PD at 9 months and 13.4 months and 8.5 months and 3.5 months and 6.5 months

Source: US20240009223A1, “6-THIO-2'-DEOXYGUANOSINE (6-THIO-DG) RESULTS IN TELOMERASE DEPENDENT TELOMERE DYSFUNCTION AND CELL DEATH IN VARIOUS MODELS OF THERAPY-RESISTANT CANCER CELLS” (The Board of Regents of The University of Texas System, priority 2016, published 2024)
